US20220289685A1, “ANTIMALARIAL HEXAHYDROPYRIMIDINE ANALOGUES” (UCB BIOPHARMA SRL, priority 2019, published 2022)
pIC50: −log10 of the molar value. Where a name gives a salt, the structure may show the parent alone.

Tested on: Plasmodium falciparum 3D7 strain
Test: P. falciparum 3D7 asexual blood stage assay (SYBR green readout)
Type: cell-based
Details: Plasmodium falciparum, 3D7, Erythrocyte, 72 h
How it was run: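 P. falciparum 3D7 in A+ erythrocytes (5% haematocrit, 0.5% parasitaemia) exposed 72 h at 37 °C under 1% O2/3% CO2 to 20-point 1.5-fold titrations, 50,000–15 nM in 0.5% DMSO. SYBR green lysis overnight, fluorescence 485/528 nm; normalized to mefloquine and DMSO, EC50 from biphasic two-site fit.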

| Compound | pIC50 |
| --- | --- |
| C[C@@H]1C[C@H](N2C(=N)N[C@](C)(c3cccc(NC(=O)c4cc(C(F)(F)F)nn4C)c3Cl)CC2=O)CCO1 (relative stereo) [Example 32, N-(2-Chloro-3-{(4S)-2-imino-4-methyl-1-[(2R*,4R*)-2-methyl-tetrahydropyran-4-yl]-6-oxo-hexahydropyrimidin-4-yl}phenyl)-2-methyl-5-(trifluoromethyl)-pyrazole-3-carboxamide trifluoroacetic acid salt] | 7.26 |
| C[C@@H]1C[C@H](N2C(=N)N[C@](C)(c3cccc(NC(=O)c4ccc(F)c(Cl)c4F)c3Cl)CC2=O)CCO1 (relative stereo) [Example 71, 3-Chloro-N-(2-chloro-3-{(4S)-2-imino-4-methyl-1-[(2R*,4R*)-2-methyltetrahydropyran-4-yl]-6-oxo-hexahydropyrimidin-4-yl}phenyl)-2,4-difluorobenzamide hydrochloride] | 7.59 |
| Cc1ccncc1C(=O)Nc1cccc([C@]2(C)CC(=O)N([C@@H]3CCO[C@H](C)C3)C(=N)N2)c1Cl (relative stereo) [Example 82, N-(2-Chloro-3-{(4S)-2-imino-4-methyl-1-[(2R*,4R*)-2-methyl-tetrahydropyran-4-yl]-6-oxo-hexahydropyrimidin-4-yl}phenyl)-4-methylpyridine-3-carboxamide trifluoroacetic acid salt] | 7.46 |
| C[C@@H]1C[C@H](N2C(=N)N[C@](C)(c3cccc(NC(=O)c4cnccc4C(F)(F)F)c3Cl)CC2=O)CCO1 (relative stereo) [Example 56, N-(2-Chloro-3-{(4S)-2-imino-4-methyl-1-[(2R*,4R*)-2-methyl-tetrahydropyran-4-yl]-6-oxo-hexahydropyrimidin-4-yl}phenyl)-4-(trifluoromethyl)pyridine-3-carboxamide hydrochloride] | 7.68 |
| C[C@@H]1C[C@H](N2C(=N)N[C@](C)(c3cccc(NC(=O)c4ncc(Cl)cn4)c3Cl)CC2=O)CCO1 (relative stereo) [Example 92, 5-Chloro-N-(2-chloro-3-{(4S)-2-imino-4-methyl-1-[(2R*,4R*)-2-methyltetrahydropyran-4-yl]-6-oxo-hexahydropyrimidin-4-yl]phenyl)-pyrimidine-2-carboxamide hydrochloride] | 7.55 |
| C[C@@]1(c2cccc(NC(=O)c3ccc(Cl)cn3)c2Cl)CC(=O)N(C2CCOCC2)C(=N)N1 [Example 2, 5-Chloro-N-{2-chloro-3-[(4S)-2-imino-4-methyl-6-oxo-1-(tetrahydropyran-4-yl)hexahydro-pyrimidin-4-yl]phenyl}pyridine-2-carboxamide trifluoroacetic acid salt] | 5.95 |
| COc1cccnc1C(=O)Nc1cccc([C@]2(C)CC(=O)N([C@@H]3CCO[C@H](C)C3)C(=N)N2)c1Cl (relative stereo) [Example 50, N-(2-Chloro-3-{(4S)-2-imino-4-methyl-1-[(2R*,4R*)-2-methyl-tetrahydropyran-4-yl]-6-oxo-hexahydropyrimidin-4-yl}phenyl)-3-methoxypyridine-2-carboxamide trifluoroacetic acid salt] | 7.25 |
| C[C@@H]1C[C@H](N2C(=N)N[C@](C)(c3cccc(NC(=O)c4ccc(F)cc4F)c3Cl)CC2=O)CCO1 (relative stereo) [Example 4, N-(2-Chloro-3-{(4S)-2-imino-4-methyl-1-[(2R*,4R*)-2-methyl-tetrahydropyran-4-yl]-6-oxo-hexahydropyrimidin-4-yl]phenyl)-2,4-difluorobenzamide hydrochloride] | 7.64 |
| C[C@@H]1C[C@H](N2C(=N)N[C@](C)(c3cccc(NC(=O)c4cncc(Cl)c4)c3Cl)CC2=O)CCO1 (relative stereo) [Example 39, 5-Chloro-N-(2-chloro-3-{(4S)-2-imino-4-methyl-1-[(2R*,4R*)-2-methyltetrahydropyran-4-yl]-6-oxo-hexahydropyrimidin-4-yl}phenyl)-pyridine-3-carboxamide trifluoroacetic acid salt] | 7.72 |
| Cc1cn(-c2cccc(C(=O)Nc3cccc([C@]4(C)CC(=O)N([C@@H]5CCO[C@H](C)C5)C(=N)N4)c3Cl)c2)cn1 (relative stereo) [Example 110, N-(2-Chloro-3-{(4S)-2-imino-4-methyl-1-[(2R*,4R*)-2-methyl-tetrahydropyran-4-yl]-6-oxo-hexahydropyrimidin-4-yl}phenyl)-3-(4-methylimidazol-1-yl)-benzamide hydrochloride] | 6.54 |
| C[C@@H]1C[C@H](N2C(=N)N[C@](C)(c3cccc(NC(=O)c4ccc(F)cc4)c3Cl)CC2=O)CCO1 (relative stereo) [Example 3, N-(2-Chloro-3-{(4S)-2-imino-4-methyl-1-[(2R*,4R*)-2-methyl-tetrahydropyran-4-yl]-6-oxo-hexahydropyrimidin-4-yl]phenyl)-4-fluorobenzamide hydrochloride] | 6.88 |
| C[C@@H]1C[C@H](N2C(=N)N[C@](C)(c3cccc(NC(=O)c4ccc(F)cc4OC(F)(F)F)c3Cl)CC2=O)CCO1 (relative stereo) [Example 102, N-(2-Chloro-3-{(4S)-2-imino-4-methyl-1-[(2R*,4R*)-2-methyl-tetrahydropyran-4-yl]-6-oxo-hexahydropyrimidin-4-yl}phenyl)-4-fluoro-2-(trifluoromethoxy)-benzamide hydrochloride] | 7.46 |
| C[C@@H]1C[C@H](N2C(=N)N[C@](C)(c3cccc(NC(=O)c4cc(N5CCOCC5)ccn4)c3Cl)CC2=O)CCO1 (relative stereo) [Example 93, N-(2-Chloro-3-{(4S)-2-imino-4-methyl-1-[(2R*,4R*)-2-methyl-tetrahydropyran-4-yl]-6-oxo-hexahydropyrimidin-4-yl]phenyl)-4-(morpholin-4-yl)pyridine-2-carboxamide hydrochloride] | 7.33 |
| C[C@@H]1C[C@H](N2C(=N)N[C@](C)(c3cccc(NC(=O)c4ccc(F)c(C#N)c4)c3Cl)CC2=O)CCO1 (relative stereo) [Example 116, N-(2-Chloro-3-{(4S)-2-imino-4-methyl-1-[(2R* ,4R* )-2-methyl-tetrahydropyran-4-yl]-6-oxo-hexahydropyrimidin-4-yl]phenyl)-3-cyano-4-fluorobenzamide trifluoroacetic acid salt] | 7.05 |
| COc1nccc(C(F)(F)F)c1C(=O)Nc1cccc([C@]2(C)CC(=O)N([C@@H]3CCO[C@H](C)C3)C(=N)N2)c1Cl (relative stereo) [Example 114, N-(2-Chloro-3-{(4S)-2-imino-4-methyl-1-[(2R*,4R*)-2-methyl-tetrahydropyran-4-yl]-6-oxo-hexahydropyrimidin-4-yl]phenyl)-2-methoxy-4-(trifluoromethyl)-pyridine-3-carboxamide hydrochloride] | 7.28 |
| C[C@@H]1C[C@H](N2C(=N)N[C@](C)(c3cccc(NC(=O)c4cncn4C)c3Cl)CC2=O)CCO1 (relative stereo) [Example 103, N-(2-Chloro-3-{(4S)-2-imino-4-methyl-1-[(2R*,4R*)-2-methyl-tetrahydropyran-4-yl]-6-oxo-hexahydropyrimidin-4-yl}phenyl)-3-methylimidazole-4-carboxamide hydrochloride] | 7.77 |
| Cc1nccc(C(F)(F)F)c1C(=O)Nc1cccc([C@]2(C)CC(=O)N([C@@H]3CCO[C@H](C)C3)C(=N)N2)c1Cl (relative stereo) [Example 111, N-(2-Chloro-3-{(4S)-2-imino-4-methyl-1-[(2R*,4R*)-2-methyl-tetrahydropyran-4-yl]-6-oxo-hexahydropyrimidin-4-yl}phenyl)-2-methyl-4-(trifluoromethyl)-pyridine-3-carboxamide hydrochloride] | 6.38 |
| C[C@@H]1C[C@H](N2C(=N)N[C@](C)(c3cccc(NC(=O)c4ccc(F)cn4)c3Cl)CC2=O)CCO1 (relative stereo) [Example 13, N-(2-Chloro-3-{(4S)-2-imino-4-methyl-1-[(2R*,4R*)-2-methyl-tetrahydropyran-4-yl]-6-oxo-hexahydropyrimidin-4-yl]phenyl)-5-fluoropyridine-2-carboxamide hydrochloride] | 7.96 |
| C[C@@H]1C[C@H](N2C(=N)N[C@](C)(c3cccc(NC(=O)c4cccnn4)c3Cl)CC2=O)CCO1 (relative stereo) [Example 19, N-(2-Chloro-3-{(4S)-2-imino-4-methyl-1-[(2R*,4R*)-2-methyl-tetrahydropyran-4-yl]-6-oxo-hexahydropyrimidin-4-yl]phenyl)-pyridazine-3-carboxamide hydrochloride] | 7.51 |
| C[C@@H]1C[C@H](N2C(=N)N[C@](C)(c3cccc(NC(=O)c4ccccc4F)c3Cl)CC2=O)CCO1 (relative stereo) [Example 35, N-(2-Chloro-3-{(4S)-2-imino-4-methyl-1-[(2R*,4R*)-2-methyl-tetrahydropyran-4-yl]-6-oxo-hexahydropyrimidin-4-yl}phenyl)-2-fluorobenzamide trifluoroacetic acid salt] | 7.96 |
| C[C@@H]1C[C@H](N2C(=N)N[C@](C)(c3cccc(NC(=O)c4cncc(N(C)C)n4)c3Cl)CC2=O)CCO1 (relative stereo) [Example 91, N-(2-Chloro-3-{(4S)-2-imino-4-methyl-1-[(2R*,4R*)-2-methyl-tetrahydropyran-4-yl]-6-oxo-hexahydropyrimidin-4-yl]phenyl)-6-(dimethylamino)pyrazine-2-carboxamide hydrochloride] | 6.94 |

Same assay, conditions: Plasmodium falciparum, Erythrocyte; P. falciparum 3D7 in human erythrocytes, 72 h incubation, SYBR green fluorescence; read-out: IC50

| Compound | pIC50 |
| --- | --- |
| C[C@@H]1C[C@H](N2C(=N)N[C@](C)(c3cccc(NC(=O)c4cccc5c4OCO5)c3Cl)CC2=O)CCO1 (relative stereo) [Example 86, N-(2-Chloro-3-{(4S)-2-imino-4-methyl-1-[(2R*,4R*)-2-methyl-tetrahydropyran-4-yl]-6-oxo-hexahydropyrimidin-4-yl]phenyl)-1,3-benzodioxole-4-carboxamide trifluoroacetic acid salt] | 8.00 |
